Source: patent US20070299092A1 (Wyeth, priority 2004, published 2007)
“And” between values parts separate entries of the source, which are not always exact repeats. Equal entries are not always repeated. Where two headings read alike, the source gives them in different places.

Columns and labels:
[1] = target: T1, human KDR (VEGF-receptor-2) (Homo sapiens, UniProt P35968); test: KDR kinase enzyme assay (DELFIA, KDR-IC-Flag, poly(Glu4-Tyr) peptide); assay type: biochemical; details: for inhibition at 0.1 µM: Concentration 100 nM; for inhibition at 0.1 µM / inhibition at 1 µM: read-out: % Inhibition; for inhibition at 1 µM: Concentration 1000 nM
T1 construct: beginning at Met-806; (5′-ATG GAT CCA GAT GM CTC CCA TTG) and ending at Val-1356; made in house

KDR = KDR (Homo sapiens, UniProt P35968); test: cell-based; details: for inhibition at 1 µM: read-out: % Inhibition of KDR kinase autophosphorylation in KDR15 cells, compound conc. 1000 nM; for IC50: IC50 (nM), inhibition of KDR kinase autophosphorylation in KDR15 cells, KDR15 cells, VEGF 50 ng/ml, phospho-KDR-Y996 immunoblot
[2] = system: Human umbilical vein endothelial cells (HUVEC); test: HUVEC proliferation assay, VEGF-dependent growth ([3H]-thymidine incorporation); assay type: cell-based; details: for inhibition at 10 µM / inhibition at 0.1 µM / inhibition at 1 µM: Homo sapiens, HUVEC; for inhibition at 0.1 µM: conc. 100 nM
Protocol: Cells were plated into 96-well dishes (4000 cells per well) and allowed to attach overnight. HUVEC were rinsed one time with 100 μl of EBMc-V (EBM supplemented with all above components except serum or VEGF), then 50 ul of EBMc-V was added to cells. Compounds were prepared at 200× stocks in DMSO, diluted into EBMc-V media as 4× stocks, then 50 ul added to appropriate wells. Finally, 100 μl of 2×VEGF (100 ng/ml prepared in EBMc-V; final 50 ng/ml VEGF) was added to all VEGF-treated wells. EBMc-V (no VEGF) was added to negative control wells. Parallel compound-treated plates were prepared except that 100 μl of EGM2 media containing 2% serum but lacking VEGF (EGMc-V) was added. Cells were incubated for 4-5 days at 37° C.
DNA synthesis was assessed by thymidine incorporation. Cells were incubated for 5 hours in 1 μCi of [^3H]-thymidine (PerkinElmer) by addition of 10 ul of 0.1 μCi/ul thymidine prepared in PBS to each well. After incubation, media was aspirated and the cells trypsinized and collected onto a mat using a vacuum-based Micro Cell Harvester (Skatron). [^3H]-thymidine was counted in a liquid scintillation counter. Compounds evaluated for ability to inhibit VEGF-dependent growth of human umbilical vein endothelial cells (HUVEC).

[3] = target: T1, human KDR (VEGF-receptor-2); test: KDR kinase enzyme assay wash-out experiments (irreversible inhibition); assay type: biochemical
Protocol: To determine if compounds bound irreversibly to enzyme, plates were washed after the enzyme plus compound pre-incubation step and prior to the addition of ATP. Parallel plates were tested wherein one plate was processed exactly as above while a second plate was washed three times in 100 μl of 4 mM HEPES, pH 7.4, to remove unbound compound. 1× Kinase buffer (30 μl of 1 mM MnCl2, 4 mM HEPES, pH 7.4, 20 μM Na3VO4) and 20 μl of ATP/MgCl2 were added to the wash-out plate. Detection of phosphotyrosinylated peptide for both plates was performed as described above.
For each inhibitor shown in Table 2, two IC50 determinations are shown, one under normal conditions and the other where an intermediate wash-out step is carried out. […] If there was a large increase in the IC50 value in the wash-out experiment compared to the experiment where there was no wash-out, then it was determined that the compound was behaving as a conventional reversible binding inhibitor.

KDR, sequence (P35968 20-1356): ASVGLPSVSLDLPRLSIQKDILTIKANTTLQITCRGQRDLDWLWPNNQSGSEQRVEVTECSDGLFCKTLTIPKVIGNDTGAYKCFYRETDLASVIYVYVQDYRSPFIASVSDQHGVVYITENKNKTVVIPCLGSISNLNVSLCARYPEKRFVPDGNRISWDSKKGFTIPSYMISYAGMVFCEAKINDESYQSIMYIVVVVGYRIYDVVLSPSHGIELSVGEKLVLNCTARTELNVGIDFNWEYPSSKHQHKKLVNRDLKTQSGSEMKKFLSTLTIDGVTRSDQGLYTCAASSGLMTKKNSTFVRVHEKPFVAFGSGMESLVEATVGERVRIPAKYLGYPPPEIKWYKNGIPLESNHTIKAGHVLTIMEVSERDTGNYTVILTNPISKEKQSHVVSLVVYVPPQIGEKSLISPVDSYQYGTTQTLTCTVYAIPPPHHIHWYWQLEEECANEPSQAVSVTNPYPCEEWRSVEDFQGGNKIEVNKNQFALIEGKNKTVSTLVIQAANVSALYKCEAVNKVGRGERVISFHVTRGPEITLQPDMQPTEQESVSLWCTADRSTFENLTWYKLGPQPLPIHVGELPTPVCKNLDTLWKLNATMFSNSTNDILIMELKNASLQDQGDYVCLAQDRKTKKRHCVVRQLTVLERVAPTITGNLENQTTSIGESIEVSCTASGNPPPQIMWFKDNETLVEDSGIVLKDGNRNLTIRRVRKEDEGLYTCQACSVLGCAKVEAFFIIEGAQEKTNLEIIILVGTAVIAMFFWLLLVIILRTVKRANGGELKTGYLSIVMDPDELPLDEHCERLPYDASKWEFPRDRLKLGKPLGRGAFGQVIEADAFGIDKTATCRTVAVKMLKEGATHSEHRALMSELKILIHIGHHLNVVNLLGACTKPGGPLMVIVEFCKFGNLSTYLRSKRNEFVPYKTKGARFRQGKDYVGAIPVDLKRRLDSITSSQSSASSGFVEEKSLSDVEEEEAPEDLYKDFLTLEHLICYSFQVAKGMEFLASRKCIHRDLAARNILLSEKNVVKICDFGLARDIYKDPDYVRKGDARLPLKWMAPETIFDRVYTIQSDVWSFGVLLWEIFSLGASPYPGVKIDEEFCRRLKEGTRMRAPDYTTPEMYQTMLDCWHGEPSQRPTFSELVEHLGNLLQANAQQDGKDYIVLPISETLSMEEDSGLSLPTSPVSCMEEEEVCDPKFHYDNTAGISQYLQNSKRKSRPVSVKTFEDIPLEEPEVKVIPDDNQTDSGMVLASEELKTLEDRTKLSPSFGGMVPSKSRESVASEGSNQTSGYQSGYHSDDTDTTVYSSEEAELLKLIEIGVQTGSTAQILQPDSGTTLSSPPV
T1 sequence (P35968 806-1356): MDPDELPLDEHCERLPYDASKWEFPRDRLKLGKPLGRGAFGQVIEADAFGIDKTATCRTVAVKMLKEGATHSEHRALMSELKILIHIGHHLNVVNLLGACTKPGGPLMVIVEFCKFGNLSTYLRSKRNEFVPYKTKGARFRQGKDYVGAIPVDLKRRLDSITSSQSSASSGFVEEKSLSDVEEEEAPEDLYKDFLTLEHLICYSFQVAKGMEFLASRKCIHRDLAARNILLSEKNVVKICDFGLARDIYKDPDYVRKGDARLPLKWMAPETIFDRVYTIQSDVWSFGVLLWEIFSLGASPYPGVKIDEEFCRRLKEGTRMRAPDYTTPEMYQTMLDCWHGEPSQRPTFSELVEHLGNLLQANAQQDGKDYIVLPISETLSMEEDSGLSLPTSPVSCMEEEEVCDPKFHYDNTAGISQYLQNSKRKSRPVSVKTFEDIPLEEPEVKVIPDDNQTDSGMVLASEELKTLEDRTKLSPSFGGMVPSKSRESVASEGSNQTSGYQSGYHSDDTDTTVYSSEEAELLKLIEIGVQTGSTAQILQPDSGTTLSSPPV

| inhibition at 0.1 µM ([1]; ATP conc. 10 μM) | inhibition at 1 µM ([1]; ATP conc. 10 μM) | inhibition at 1 µM ([1]; ATP conc. 1000 μM) | inhibition at 1 µM (KDR) | IC50 ([1]; ATP conc. 10 μM) | Compound | other results |
| --- | --- | --- | --- | --- | --- | --- |
| 55% | 95% | 97% | 12% |  | COCCOc1cc2ncnc(NC3=CC(=O)C(Oc4cccc(C(C)=O)c4)=CC3=O)c2cc1OC [Example 34, 2-(3-acetylphenoxy)-5-{[6-methoxy-7-(2-methoxyethoxy)quinazolin-4-yl]amino}benzo-1,4-quinone] |  |
| 51% | 82% | 80% |  | 175 nM and 177 nM | CCC1=CC(=O)C(Nc2ncnc3cc(OC)c(OC)cc23)=CC1=O [Example 8, 2-[(6,7-dimethoxy-4-quinazolinyl)amino]-5-ethylbenzo-1,4-quinone] | inhibition at 10 µM ([2]; conc. 10000 nM): 87%; % Inhibition of VEGF-dependent growth of HUVEC ([2]; conc. 1000 nM): 30% and 51% and 37%; % Inhibition of VEGF-dependent growth of HUVEC ([2]; conc. 10000 nM): 98% and 89%; IC50 ([1]; ATP conc. 100 μM): 200 nM; IC50 ([1]; ATP conc. 1000 μM): 239 nM; IC50 (KDR): 172 nM; inhibition at 0.5 µM (KDR; read-out: % Inhibition of KDR kinase autophosphorylation in KDR15 cells, compound conc. 500 nM): 25% |
| 92% | 94% |  | 64% |  | COCCOc1cc2ncnc(NC3=CC(=O)C(Oc4ccc(C(=O)OC)cc4)=CC3=O)c2cc1OC [Example 42, methyl 4-[(4-{[6-methoxy-7-(2-methoxyethoxy)quinazolin-4-yl]amino}-3,6-dioxocyclohexa-1,4-dien-1-yl)oxy]benzoate] |  |
| 89% | 93% |  | 11% |  | CCOC(=O)Cc1ccc(OC2=CC(=O)C(Nc3ncnc4cc(OCCOC)c(OC)cc34)=CC2=O)cc1 [Example 37, ethyl {4-[(4-{[6-methoxy-7-(2-methoxyethoxy)quinazolin-4-yl]amino}-3,6-dioxocyclohexa-1,4-dien-1-yl)oxy]phenyl}acetate] |  |
| 93% | 94% |  | 79% |  | COCCOc1cc2ncnc(NC3=CC(=O)C(Oc4ccc(Br)cc4)=CC3=O)c2cc1OC [Example 46, 2-(4-bromophenoxy)-5-{[6-methoxy-7-(2-methoxyethoxy)quinazolin-4-yl]amino}benzo-1,4-quinone] |  |
| 96% | 92% | 96% | 0% |  | COCCOc1cc2ncnc(NC3=CC(=O)C(Sc4ccccc4)=CC3=O)c2cc1OC [Example 24, 2-{[6-methoxy-7-(2-methoxyethoxy)quinazolin-4-yl]amino}-5-(phenylthio)benzo-1,4-quinone] |  |
| 91% | 95% |  | 94% |  | COCCOc1cc2ncnc(NC3=CC(=O)C(Oc4ccccc4OCc4ccccc4)=CC3=O)c2cc1OC [Example 52, 2-[2-(benzyloxy)phenoxy]-5-{[6-methoxy-7-(2-methoxyethoxy)quinazolin-4-yl]amino}benzo-1,4-quinone] |  |
| 63% | 96% | 98% | 25% | 34.4 nM | COCCOc1cc2ncnc(NC3=CC(=O)C(Oc4cccc(C#N)c4)=CC3=O)c2cc1OC [Example 27, 3-[(4-{[6-methoxy-7-(2-methoxyethoxy)quinazolin-4-yl]amino}-3,6-dioxocyclohexa-1,4-dien-1-yl)oxy]benzonitrile] |  |
| 41% | 88% | 88% | -10% |  | COCCOc1cc2ncnc(NC3=C(SCc4ccccc4)C(=O)C=C(OC)C3=O)c2cc1OC [Example 19, 2-(benzylthio)-5-methoxy-3-{[6-methoxy-7-(2-methoxyethoxy)quinazolin-4-yl]amino}benzo-1,4-quinone] |  |
| 91% | 94% |  | 140% | 3.5 nM | COCCOc1cc2ncnc(NC3=CC(=O)C(Oc4ccc(C(=O)c5ccccc5)cc4)=CC3=O)c2cc1OC [Example 39, 2-(4-benzoylphenoxy)-5-{[6-methoxy-7-(2-methoxyethoxy)quinazolin-4-yl]amino}benzo-1,4-quinone] | inhibition at 0.1 µM [2]: 18%; inhibition at 1 µM ([2]; conc. 1000 nM): 58%; inhibition at 10 µM ([2]; conc. 10000 nM): 99% |
| 86% | 93% |  | 74% |  | COCCOc1cc2ncnc(NC3=CC(=O)C(Oc4ccc(C(=O)OCc5ccccc5)cc4)=CC3=O)c2cc1OC [Example 48, benzyl 4-[(4-{[6-methoxy-7-(2-methoxyethoxy)quinazolin-4-yl]amino}-3,6-dioxocyclohexa-1,4-dien-1-yl)oxy]benzoate] |  |
| 73% | 93% | 94% |  | 53.7 nM and 72.4 nM | COCCOc1cc2ncc(C#N)c(NC3=CC(=O)C(Oc4ccc(-n5ccnc5)cc4)=CC3=O)c2cc1OC [Example 72, 4-({4-[4-(1H-imidazol-1-yl)phenoxy]-3,6-dioxocyclohexa-1,4-dien-1-yl}amino)-6-methoxy-7-(2-methoxyethoxy)quinoline-3-carbonitrile] | IC50 ([3]; no wash): 53.7 nM; IC50 ([3]; wash out): 73.7 nM |
| 90% | 94% |  | 79% |  | COCCOc1cc2ncnc(NC3=CC(=O)C(Oc4ccc5c(c4)Cc4ccccc4-5)=CC3=O)c2cc1OC [Example 53, 2-(9H-fluoren-2-yloxy)-5-{[6-methoxy-7-(2-methoxyethoxy)quinazolin-4-yl]amino}benzo-1,4-quinone] |  |
| 86% | 94% |  | 66% |  | COCCOc1cc2ncnc(NC3=CC(=O)C(Oc4ccc(C)cc4-c4ccno4)=CC3=O)c2cc1OC [Example 47, 2-(2-isoxazol-5-yl-4-methylphenoxy)-5-{[6-methoxy-7-(2-methoxyethoxy)quinazolin-4-yl]amino}benzo-1,4-quinone] |  |
|  |  |  |  |  | COCCOc1cc2ncnc(NC3=CC(=O)C(OCC4CC4)=CC3=O)c2cc1OC [Example 213, 2-(cyclopropylmethoxy)-5-{[6-methoxy-7-(2-methoxyethoxy)quinazolin-4-yl]amino}benzo-1,4-quinone] | IC50 ([3]; no wash): 4.7 nM; IC50 ([3]; wash out): 16.9 nM; IC50 (KDR): 236 to 400 nM |
| 88% | 93% |  | 90% | 149 nM | COCCOc1cc2ncnc(NC3=CC(=O)C(Oc4ccc(C(=O)Cc5ccccc5)cc4)=CC3=O)c2cc1OC [Example 49, 2-{[6-methoxy-7-(2-methoxyethoxy)quinazolin-4-yl]amino}-5-[4-(phenylacetyl)phenoxy]benzo-1,4-quinone] |  |
| 92% | 92% |  | 120% | 2 nM | COCCOc1cc2ncnc(NC3=CC(=O)C(Oc4ccc5c(c4)[nH]c4ccccc45)=CC3=O)c2cc1OC [Example 41, 2-(9H-carbazol-2-yloxy)-5-{[6-methoxy-7-(2-methoxyethoxy)quinazolin-4-yl]amino}benzo-1,4-quinone] | inhibition at 0.1 µM [2]: -5%; inhibition at 1 µM ([2]; conc. 1000 nM): 42%; inhibition at 10 µM ([2]; conc. 10000 nM): 98% |
| 91% | 93% |  | 105% |  | COCCOc1cc2ncnc(NC3=CC(=O)C(Oc4ccc5cc(Br)ccc5c4)=CC3=O)c2cc1OC [Example 51, 2-[(6-bromo-2-naphthyl)oxy]-5-{[6-methoxy-7-(2-methoxyethoxy)quinazolin-4-yl]amino}benzo-1,4-quinone] |  |
| 92% | 90% | 97% |  | 17.9 nM | COCCOc1cc2ncnc(NC3=CC(=O)C(Sc4nccs4)=C(OC)C3=O)c2cc1OC [Example 20] | IC50 ([3]; no wash): 17.9 nM; IC50 ([3]; wash out): 33.1 nM |
| 27% | 89% | 84% | 4% |  | COCCOc1cc2ncnc(NC3=CC(=O)C(N(C)c4cccc(F)c4)=CC3=O)c2cc1OC [Example 74, 2-[(3-fluorophenyl)(methyl)amino]-5-{[6-methoxy-7-(2-methoxyethoxy)quinazolin-4-yl]amino}benzo-1,4-quinone] |  |
